Where two headings read alike, the source gives them in different places.
Target: FPR2 (Homo sapiens (Human), UniProt P25090)
Assay: FLIPR Ca+2 response, HEK-Gα16 cells stably expressing the human FPR2 receptor (Table 4)
Assay type: cell-based
Conditions: for FPR2 (efficacy): efficacy in parentheses
Protocol: FLIPR: HEK-Gα16 cells stably expressing the human FPR2 receptor was utilized. Cells were plated into 384-well poly-D-lysine coated plates at a density of 18,000 cells per well one day prior to use. The growth media was DMEM medium supplemented with 10% fetal bovine serum (FBS), 1% antibiotic-antimycotic, 50 μg/ml hygromycin, and 400 μg/ml geneticin. On the day of the experiment, the cells were washed twice with Hank's Balanced Salt Solution supplemented with 20 mM HEPES (HBSS/hepes buffer). The cells were then dye loaded with 2 μM Fluo-4 diluted in the HBSS/Hepes buffer and incubated at 37° C. for 40 minutes. Extracellular dye was removed by washing the cell plates four times prior to placing the plates in the FLIPR (Fluorometric Imaging Plate Reader, Molecular Devices). Ligands were diluted in HBSS/Hepes buffer and prepared in 384-well microplates. Data for Ca^+2 responses were obtained in relative fluorescence units.

FPR2, sequence (P25090 whole entry): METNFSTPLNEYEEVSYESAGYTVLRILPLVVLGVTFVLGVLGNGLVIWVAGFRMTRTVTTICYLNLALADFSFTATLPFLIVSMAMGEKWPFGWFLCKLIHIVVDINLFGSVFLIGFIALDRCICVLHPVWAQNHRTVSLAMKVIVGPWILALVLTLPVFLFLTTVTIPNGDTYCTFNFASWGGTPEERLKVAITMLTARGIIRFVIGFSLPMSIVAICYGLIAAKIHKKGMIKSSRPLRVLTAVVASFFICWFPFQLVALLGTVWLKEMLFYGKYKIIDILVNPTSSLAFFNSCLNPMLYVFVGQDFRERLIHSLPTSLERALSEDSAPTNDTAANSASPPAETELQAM

Structure (SMILES) | EC50 | FPR2 (efficacy) | EC50 (unit inferred)
CCOC(=O)CCC1(C(C)C)NC(=O)N(NC(=O)Nc2ccc(Br)cc2)C1=O (stereo not drawn) [Compound 149, ethyl 3-[1-{[(4-bromophenyl)carbamoyl]amino}-2,5-dioxo-4-(propan-2-yl)imidazolidin-4-yl]propanoate] | 6.6 nM | nM (0.94) | 
CC(C)C[C@H](NC(=O)Nc1ccc(Br)cc1)C(=O)NCC(O)CO (stereo partly drawn) [Compound 95, (2S)-2-{[(4-bromophenyl)carbamoyl]amino}-N-(2,3-dihydroxypropyl)-4-methylpentanamide] |  | nM (0.98) | 
CCC[C@H](NC(=O)Nc1ccc(Br)cc1)C(=O)NCP(=O)(O)OCC [Compound 123, ethyl hydrogen ({[(2S)-2-{[(4-bromophenyl)carbamoyl]amino}pentanoyl]amino}methyl) phosphonate] |  | nM (0.96) | 
CC1(CCc2ccco2)NC(=O)N(NC(=O)Nc2ccc(Br)cc2)C1=O (stereo not drawn) [Compound 76, 1-(4-bromophenyl)-3-{4-[2-(furan-2-yl)ethyl]-4-methyl-2,5-dioxoimidazolidin-1-yl}urea] | 5.2 nM | nM (0.99) | 
CC1(CCc2ccc(O)c(F)c2)NC(=O)N(NC(=O)Nc2ccc(Br)cc2)C1=O (stereo not drawn) [Compound 99, 1-(4-bromophenyl)-3-{4-[2-(3-fluoro-4-hydroxyphenyl)ethyl]-4-methyl-2,5-dioxoimidazolidin-1-yl}urea] | 8 nM | nM (1.0) | 
CCOP(=O)(CNC(=O)[C@H](Cc1ccccc1)NC(=O)Nc1ccc(Br)cc1)OCC [Compound 118, diethyl ({[(2S)-2-{[(4-bromophenyl)carbamoyl]amino}-3-phenylpropanoyl]amino}methyl)phosphonate] | 16.1 nM | nM (0.93) | 
CC(C)C1(CC(=O)NCCO)NC(=O)N(NC(=O)Nc2ccc(Br)cc2F)C1=O (stereo not drawn) [Compound 148, 2-[1-{[(4-bromo-2-fluorophenyl)carbamoyl]amino}-2,5-dioxo-4-(propan-2-yl)imidazolidin-4-yl]-N-(2-hydroxyethyl)acetamide] | 6.9 nM | nM (0.98) | 
CCC[C@H](NC(=O)[C@H](CC(C)C)NC(=O)Nc1ccc(Br)cc1)C(N)=O [Compound 102, (2S)-N-[(2S)-1-amino-1-oxopentan-2-yl]-2-{[(4-bromophenyl)carbamoyl]amino}-4-methylpentanamide] | 7.3 nM | nM (0.99) | 
CC1(C)C2CCC1C(C(=O)Nc1ccc(Br)cc1)C2C(N)=O (stereo not drawn) [Compound 34, N-(4-bromophenyl)-7,7-dimethylbicyclo[2.2.1]heptane-2,3-dicarboxamide] |  | nM (0.83) | 
CCOP(=O)(CNC(=O)[C@H](CC(C)C)NC(=O)Nc1ccc(SC)cc1)OCC [Compound 138, diethyl ({[(2S)-4-methyl-2-({[4-(methylsulfanyl)phenyl]carbamoyl}amino)pentanoyl]amino}methyl)phosphonate] | 3.5 nM | nM (0.91) | 
CC(C)C1(CC(=O)NCCC(=O)O)NC(=O)N(NC(=O)Nc2ccc(Br)cc2F)C1=O (stereo not drawn) [Compound 145, 3-({[-{[(4-bromo-2-fluorophenyl)carbamoyl]amino}-2,5-dioxo-4-(propan-2-yl)imidazolidin-4-yl]acetyl}amino)propanoic acid] | 1 nM | nM (1.0) | 
CCC[C@H](NC(=O)[C@H](CC(C)C)NC(=O)Nc1ccc(Br)cc1)C(=O)O [Compound 101, (2S)-2-{[(2S)-2-{[(4-bromophenyl)carbamoyl]amino}-4-methylpentanoyl]amino} pentanoic acid] |  | nM (0.95) | 
CCC1(CCc2ccccc2C(=O)O)NC(=O)N(NC(=O)Nc2ccc(Br)cc2)C1=O (stereo not drawn) [Compound 143, 2-[2-(1-{[(4-bromophenyl)carbamoyl]amino}-4-ethyl-2,5-dioxoimidazolidin-4-yl)ethyl]benzoic acid] | 17.2 nM | nM (1.0) | 
CC(=O)CNC(=O)[C@H](CC(C)C)NC(=O)Nc1ccc(Br)cc1 [Compound 78, (2S)-2-{[(4-bromophenyl)carbamoyl]amino}-4-methyl-N-(2-oxopropyl)pentanamide] |  | nM (0.82) | 
CCOP(=O)(O)CNC(=O)[C@H](CC(C)C)NC(=O)Nc1ccc(Br)cc1 [Compound 105, ethyl hydrogen ({[(2S)-2-{[(4-bromophenyl)carbamoyl]amino}-4-methylpentanoyl]amino}methyl)phosphonate] |  | nM (0.88) | 
NC(=O)C1C(C(=O)Nc2ccc(I)cc2)C2C=CC1C21CC1 (stereo not drawn) [Compound 39, N-(4-iodophenyl) spiro[bicyclo[2.2.1]heptane-7,1′-cyclopropane]-5-ene-2,3-dicarboxamide] | 1.6 nM | nM (0.90) | 
CNC(=O)C1C(C(=O)Nc2ccc(Br)cc2)C2CCC1C21CC1 (stereo not drawn) [Compound 46, N-(4-bromophenyl)-N′-methylspiro[bicyclo[2.2.1]heptane-7,1′-cyclopropane]-2,3-dicarboxamide] | 8.5 nM | nM (1.0) | 
CCC1(CCc2ccccc2)NC(=O)N(NC(=O)Nc2ccc(Br)cc2)C1=O (stereo not drawn) [Compound 1, 1-(4-bromophenyl)-3-[4-ethyl-2,5-dioxo-4-(2-phenylethyl)imidazolidin-1-yl]urea] |  | (0.96) | 3 nM
CCC1(CCc2ccccc2)NC(=O)N(NC(=O)Nc2ccc(Br)cc2F)C1=O (stereo not drawn) [Compound 69, 1-(4-bromo-2-fluorophenyl)-3-[4-ethyl-2,5-dioxo-4-(2-phenylethyl)imidazolidin-1-yl]urea] | 13.4 nM | nM (0.91) | 
CC1(CCc2ccc(O)c(F)c2)NC(=O)N(NC(=O)Nc2ccc(Br)cc2F)C1=O (stereo not drawn) [Compound 98, 1-(4-bromo-2-fluorophenyl)-3-{4-[2-(3-fluoro-4-hydroxyphenyl)ethyl]-4-methyl-2,5-dioxoimidazolidin-1-yl}urea] |  | nM (0.91) | 
CCOC(=O)C1CCC2(CC1)NC(=O)N(NC(=O)Nc1ccc(Br)cc1)C2=O (stereo not drawn) [Compound 153, ethyl 3-{[(4-bromophenyl)carbamoyl]amino}-2,4-dioxo-1,3-diazaspiro[4.5]decane-8-carboxylate] | 12 nM | nM (0.99) | 
CC(C)C[C@H](NC(=O)Nc1ccc(C(F)(F)F)cc1)C(=O)NCc1nnn[nH]1 [Compound 136, (2S)-4-methyl-N-(1H-tetrazol-5-ylmethyl)-2-({[4-(trifluoromethyl)phenyl]carbamoyl}amino)pentanamide] | 3.7 nM | nM (0.96) | 
CC1(CCc2cccc(O)c2)NC(=O)N(NC(=O)Nc2ccc(Br)cc2)C1=O (stereo not drawn) [Compound 108, 1-(4-bromophenyl)-3-{4-[2-(3-hydroxyphenyl)ethyl]-4-methyl-2,5-dioxoimidazolidin-1-yl}urea] | 2.1 nM | nM (1.0) | 
CC(C)C[C@H](NC(=O)Nc1ccc(Br)cc1)C(=O)N[C@@H](C)C(=O)O [Compound 90, (2S)-2-{[(2S)-2-{[(4-bromophenyl)carbamoyl]amino}-4-methylpentanoyl]amino} propanoic acid] | 11.6 nM | nM (1.0) | 
CC(C)C[C@H](NC(=O)Nc1ccc(Br)cc1)C(=O)NCC(C)(C)O [Compound 93, (2S)-2-{[(4-bromophenyl)carbamoyl]amino}-N-(2-hydroxy-2-methylpropyl)-4-methylpentanamide] | 2.5 nM | nM (0.93) | 
CCC[C@H](NC(=O)Nc1ccc(Br)cc1F)C(=O)NCC(=O)O [Compound 74, {[(2S)-2-+{[(4-bromo-2-fluorophenyl)carbamoyl]amino}pentanoyl]amino}acetic acid] | 4.1 nM | nM (0.91) | 
CC(C)C[C@H](NC(=O)Nc1ccc(Br)cc1F)C(=O)N[C@@H](C)C(=O)O [Compound 87, (2S)-2-{[(2S)-2-{[(4-bromo-2-fluorophenyl)carbamoyl]amino}-4-methylpentanoyl]amino} propanoic acid] | 12.1 nM | nM (0.95) | 
CC[C@H](C)[C@H](NC(=O)Nc1ccc(Br)cc1F)C(=O)NCC(=O)O [Compound 59, {[(2S,3S)-2-{[(4-bromo-2-fluorophenyl)carbamoyl]amino}-3-methylpentanoyl]amino}acetic acid] |  | nM (0.95) | 
CC1(CCc2ccccc2)NC(=O)N(NC(=O)Nc2ccc(Br)cc2)C1=O (stereo not drawn) [Compound 54, 1-(4-bromophenyl)-3-[4-methyl-2,5-dioxo-4-(2-phenylethyl)imidazolidin-1-yl]urea] |  | nM (0.87) | 
CSc1ccc(NC(=O)N[C@@H](CC(C)C)C(=O)O)cc1 [Compound 128, (2S)-4-methyl-2-({[4-(methylsulfanyl)phenyl]carbamoyl}amino)pentanoic acid] | 16.8 nM | nM (0.92) | 
